Series [1] has as its target T1, TRβ (Homo sapiens, UniProt P10828).
T1 sequence (P10828 1-461): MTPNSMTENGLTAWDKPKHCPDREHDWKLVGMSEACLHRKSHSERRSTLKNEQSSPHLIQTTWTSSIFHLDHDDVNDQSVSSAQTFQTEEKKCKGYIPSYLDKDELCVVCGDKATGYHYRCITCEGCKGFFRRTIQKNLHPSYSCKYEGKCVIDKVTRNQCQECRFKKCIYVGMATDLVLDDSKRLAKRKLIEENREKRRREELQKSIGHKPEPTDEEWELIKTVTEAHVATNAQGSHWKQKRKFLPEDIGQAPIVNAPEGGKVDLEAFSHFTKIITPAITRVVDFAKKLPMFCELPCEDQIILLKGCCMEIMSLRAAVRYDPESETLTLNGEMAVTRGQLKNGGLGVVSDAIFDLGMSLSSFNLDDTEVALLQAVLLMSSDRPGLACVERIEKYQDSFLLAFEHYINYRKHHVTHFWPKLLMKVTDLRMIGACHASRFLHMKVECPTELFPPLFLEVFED
Kind of series: Gel retardation DNA-binding assay with TRβ-expressing COS cell extracts. Conditions: for competition for TRβ binding (mobility shift assay): unlabeled competitor oligonucleotide, COS cells expressing TRβ; for TRβ binding to labeled oligonucleotide probe: gel retardation, TRβ COS cell extract. On the set-up: expressed in transfected cells; host or cells: COS cells (whole-cell extract). In a few lines:
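Extracts of COS cells transfected with pCMX TRβ expression plasmid, 48 h post-transfection; 5 μg protein pre-incubated on ice 20 min with poly dI/dC, then 40 fmole 32P-labelled oligonucleotide 30 min at room temperature. Complexes resolved on 5% polyacrylamide gel.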

Series [2] has as its target T2, RARα (Homo sapiens, UniProt P10276).
T2 sequence (P10276 1-462): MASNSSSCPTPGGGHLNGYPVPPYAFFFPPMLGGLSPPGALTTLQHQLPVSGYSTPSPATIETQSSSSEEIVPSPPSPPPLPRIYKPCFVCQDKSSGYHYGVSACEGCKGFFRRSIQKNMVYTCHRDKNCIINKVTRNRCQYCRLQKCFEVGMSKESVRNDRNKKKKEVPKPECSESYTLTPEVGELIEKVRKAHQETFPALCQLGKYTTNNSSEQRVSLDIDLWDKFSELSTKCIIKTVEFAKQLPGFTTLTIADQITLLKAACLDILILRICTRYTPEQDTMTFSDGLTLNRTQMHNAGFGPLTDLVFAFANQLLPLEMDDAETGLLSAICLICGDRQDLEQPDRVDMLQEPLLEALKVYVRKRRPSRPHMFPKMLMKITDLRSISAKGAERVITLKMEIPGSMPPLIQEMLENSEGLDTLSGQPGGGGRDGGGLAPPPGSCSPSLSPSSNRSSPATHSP
Kind of series: Gel retardation DNA-binding assay with RARα-expressing COS cell extracts. The arrangement: expressed in transfected cells; host or cells: COS cells (whole-cell extract). The conditions noted are these: unlabeled competitor oligonucleotide; COS cell extracts. On the procedure:
For DNA binding assays, COS cells were cultured in DMEM with 10% calf bovine serum and transfected by the calcium phosphate method with 20 μg of the pCMX receptor expression plasmid for 6 hours followed by a glycerol shock. After incubating the transfected COS cells for another 48 hours, the cells were harvested to prepare extracts for the DNA binding assay, carried out as described by Damm et al., Nature 339: 593-597 (1989). The extracts were made in 20 mM HEPES (pH 7.4), 0.4 M KCl, 2 mM DTT and 20% glycerol. A similar method was employed to prepare a whole cell extract from F9 stem cells. For the binding, 5 μg (COS) or 10 μg (F9) of proteins was incubated on ice for 20 minutes, first in 20 mM HEPES, 80 mM KCl, 1 mM DTT, 0.1% NP40, 2.5 μg of poly dI/dC, and 10% glycerol (cold competitor oligonucleotides, when included, were added during this pre-incubation period). Then 40 fmole of ^32P-labeled oligonucleotide probe (1-2×10^5 cpm, prepared by filling-in reaction using Klenow polymerase in the presence of α-^32P-dCTP) was added to the reaction mixture, followed by incubation at room temperature for 30 minutes. The receptor-DNA complexes were resolved by electrophoresis through 5% polyacrylamide gel containing 5% glycerol at 6 V/cm at room temperature.
Oligonucleotides listed in FIG. 3 were used as a probe to test specific DNA-binding of the RARα and TRβ in a gel retardation assay. On the βRARE, a faint background binding activity was detected in the mock transfected COS cell extract. […] In each case the result obtained from in vivo transactivation and in vitro DNA binding are consistent.
Using the mobility shift assay, the DNA-binding capacity of extracts from COS cells expressing TRβ and RARα to these sequences was also tested. […] This pattern is consistent with that of the in vivo activation (FIG. 4). A reciprocal pattern was obtained when the same oligonucleotides were used to compete RARα binding to the ^32P-labeled βRARE. […] This provides a striking example of the role of half-site spacing in generating a functional response element.

The test system of series [3] is F9 teratocarcinoma stem cells. As to the kind of experiment: CAT reporter transfection into RA responsive F9 teratocarcinoma stem cells. Format: cell-based, mouse. The conditions noted are these: RA 1 μM, 24 hours; no transfected receptor. On the procedure: For cotransfection assays, a monkey kidney cell line CV-1 was kept in Dulbecco's modified Eagle's medium (DMEM) supplemented with 10% charcoal-resin double split calf bovine serum. Transfections were performed via calcium-phosphate precipitation method as described by Umesono, et al. in Cell 57: 1139-1146 (1989), with 0.5 μg of a pRS receptor expression plasmid, 1.0 μg of a reporter CAT plasmid, 5 μg of pRAS-βGAL [Umesono, et al., Cell 57: 1139-1146 (1989)] as an internal control, and 8.5 μg of carrier plasmid pUC19. The cells were transfected for 8 hours; after washing the DNA precipitates, the cells were then incubated for an additional 36 hours with or without the ligand (T3, 100 nM; RA, 1 μM; 1,25-(OH)2 vitamin D3, 100 nM). Cell extracts were prepared for βGAL and CAT assays, as described by Umesono, et al., supra. Transfection of F9 teratocarcinoma cells was carried out employing a similar method except the cells were incubated for 12 hours in the presence of the DNA precipitates, and the RA was added at 1 μM for another 24 hours before harvesting the cells. 2, 5, and 4 μg of the reporter, pRAS-βGAL, and pUC19 were used, respectively.
Similarly, when the same set of reporters as in FIG. 4 were transfected into F9 cells, only MHC-R (5-nucleotide spacer) and TREp are potent RAREs. In contrast, its RARE antecedents (MHC-N, MHC+1, MHC-T) are inert.

Take “TREp: optimized palindromic rat growth hormone TRE (SEQ ID NO:10) (AGCTTCAGGTCATGACCTGAGAGCT; DNA, backbone not given here; double-stranded response element with agct overhangs, cloned into reporter plasmid) [reference compound]”: the “competition for TRβ binding (mobility shift assay)” value in series [1] is given as “efficient competition”. The “competition for RARα binding to 32P-labeled βRARE” value in series [2] was “effective competitors”. Besides, the “function as RARE in F9 cells” value in series [3] is given as “potent RAREs”.
Turning to “MHC-N: 23-nucleotide core of the wild-type sequence (MHC-TRE) (SEQ ID NO:14) (AGCTGGAGGTGACAGGAGGACAGCAAGCT; DNA, backbone not given here; further chemistry not fully specified)”, in series [1] (50-fold excess of unlabeled oligonucleotide, COS cell extracts), the “competition for TRβ binding to 32P-labeled MHC-N” value is recorded as “competed”. Moreover, the “TRβ binding to labeled oligonucleotide probe” value is given as “specific binding” in series [1] and “high affinity” in series [1] (listed as MHC-TRE). For the same substance, the “competition for TRβ binding (mobility shift assay)” value in series [1] is recorded as “efficient competition”. Further, in series [2], the “competition for RARα binding to 32P-labeled βRARE” value is given as “fails to compete at all”. Also, the “function as RARE in F9 cells” value in series [3] is recorded as “inert”.

The values above are taken from patent US6492137B1, “Response element compositions and assays employing same” (The Salk Institute for Biological Studies, priority 1989, dated 2002).
